Among the data in patent US6617350B2, “Inhibitors of aspartyl protease” (priority 1999, dated 2003) are Ki and IC50 values, retold here.

Structures are written as SMILES. Bounds are passed on as bounds.

For one test, the target named is HIV-1 protease (Human immunodeficiency virus type 1 group M subtype B, UniProt P04585). Kind of test: biochemical.
Details: not given
In general, Ki refers to the dissociation constant of the complex between target and ligand, obtained from inhibition or displacement. Compound `COc1ccc(S(=O)(=O)N(CC(O)C(Cc2ccccc2)NC(=O)OC2COC3OCCC23)CC(C)(C)CCNS(C)(=O)=O)cc1` [Compound 220, (3R,3aS,6aR)hexahydrofuro[2,3-b]furan-3-yl N-((1S,2R)-1-benzyl-3-2,2-dimethyl-4-[(methylsulfonyl)amino]butyl[(4-methoxyphenyl)sulfonyl]amino-2-hydroxypropyl)carbamate and (3S,3aR,6aS)hexahydrofuro[2,3-b]furan-3-yl N-((1S,2R)-1-benzyl-3-2,2-dimethyl-4-[(methylsulfonyl)amino]butyl[(4-methoxyphenyl)sulfonyl]amino-2-hydroxypropyl)carbamate] yielded a Ki below 0.001 µM. The compound `CNC(=O)NCC(=O)NCCCC(C)(C)CN(CC(O)C(Cc1ccccc1)NC(=O)OC1COC2OCCC12)S(=O)(=O)c1ccc2c(c1)OCO2` (stereo not shown) [Compound 536] displayed a Ki below 0.001 µM. Consider `CNC(=O)NCC(=O)NCCCCC(C)(C)CN(CC(O)C(Cc1ccccc1)NC(=O)OC1COC2OCCC12)S(=O)(=O)c1ccc2c(c1)OCO2` (stereo not shown) [Compound 543], for which the Ki was below 0.001 µM.

Consider `CNC(=O)NCC(=O)NCCC(C)(C)CN(CC(O)C(Cc1ccccc1)NC(=O)OC1COC2OCCC12)S(=O)(=O)c1ccc2c(c1)OCO2` (stereo not shown) [Compound 529], for which the Ki was below 0.001 µM.

Still in this test, the particulars now being: Table 12; HIV-1 protease; read-out: Ki.
On to `CC(C)(CCCC#N)CN(CC(O)C(Cc1ccccc1)NC(=O)OC1COC2OCCC12)S(=O)(=O)c1ccc2c(c1)OCCO2` (stereo not shown) [Compound 40], for which the Ki is below 0.001 µM. As for `CC(C)(CCC#N)CN(C[C@@H](O)[C@H](Cc1ccccc1)NC(=O)OC1COCOC1)S(=O)(=O)c1ccc(OCc2ccccc2)cc1` [Compound 33, {(1S,2R)-1-Benzyl-3-[(4-cyano-2,2-dimethyl-butyl)-(4-benzyloxybenzenesulfonyl)-amino]-2-hydroxy-propyl}-carbamic acid[1,3]dioxan-5-yl ester], the inhibitory constant (Ki) was in the range of 0.01 to 0.1 µM. On the same count and under the same terms, the same measure for `CC(C)(CCC#N)CN(CC(O)[C@H](Cc1ccccc1)NC(=O)OC1COC2OCCC12)S(=O)(=O)c1cccc(N)c1` (stereo partly drawn) [Compound 16, (3R,3aS,6aR)-Hexahydrofuro[2,3-b]furan-3-yl N-((1S,2R)-3-[(3-aminophenyl)sulfonyl](4-cyano-2,2-dimethylbutyl)amino-1-benzyl-2-hydroxypropyl)carbamate]: below 0.001 µM; for `CC(C)(C)OC(=O)N[C@@H](Cc1ccccc1)[C@H](O)CN(CCC#N)S(=O)(=O)c1cccc(N)c1` [Compound 127]: 0.01 to 0.1 µM. Same read-out and setting: with `CCNc1cccc(S(=O)(=O)N(CC(O)C(Cc2ccccc2)NC(=O)OC2COC3OCCC23)CC(C)(C)CCC#N)c1` [Compound 44, {(1S,2R)-3-[(3-N-ethylaminophenyl)sulfonyl]-(4-cyano-2,2-dimethyl-butyl)-amino]-1-benzyl-2-hydroxy-propyl}carbamic acid (3R,3aS,6aR)hexahydro-furo[2,3-b]furan-3-yl ester] the figure was below 0.001 µM; with `CC(C)(CCC#N)CN(C[C@@H](O)[C@H](Cc1ccccc1)NC(=O)OC(C)(C)C)S(=O)(=O)c1ccc2c(c1)OCO2` [Compound 6, {(1S,2R)-3-[(Benzo[1,3]dioxole-5-sulfonyl)-(4-cyano-2,2-dimethyl-butyl)-amino]-1-benzyl-2-hydroxy-propyl}-carbamic acid tert-butyl ester], below 0.001 µM; with `COc1ccc(S(=O)(=O)N(CCC#N)C[C@@H](O)[C@H](Cc2ccccc2)NC(=O)OC(C)(C)C)cc1` [Compound 123], 0.01 to 0.1 µM.

With `COc1ccc(S(=O)(=O)N(CCC(C)CCC=O)C[C@@H](O)[C@H](Cc2ccccc2)NC(=O)OC(C)(C)C)cc1` (stereo partly shown) [Compound 277], the Ki fell in the range of 0.001 to 0.01 µM. Still for that read-out and setting: with `COc1ccc(S(=O)(=O)N(CCC(C)=O)C[C@@H](O)[C@H](Cc2ccccc2)NC(=O)OC(C)(C)C)cc1` [Compound 279] the figure was 0.01 to 0.1 µM; with `CC(CCC=O)CCN(C[C@@H](O)[C@H](Cc1ccccc1)NC(=O)OC(C)(C)C)S(=O)(=O)c1ccc2c(c1)OCO2` (stereo partly shown) [Compound 278], 0.001 to 0.01 µM.

Take `COc1ccc(S(=O)(=O)N(CC(O)[C@H](Cc2ccccc2)NC(=O)OC(C)(C)C)CC(C)(C)CCOC(N)=O)cc1` (stereo partly drawn) [Compound 234, ter-Butyl N-((1S,2R)-1-benzyl-3-(4-carbamoyloxy-2,2-dimethylbutyl)[(4-methoxyphenyl)sulfonyl]amino-2-hydroxypropyl)carbamate]: the Ki was below 0.001 µM.

Another test has as its system HIV-1 (strain IIIB). Kind of test: microbe, parasite or virus in culture. The class given is cell-based. Particulars: Human immunodeficiency virus 1, IIIB, MT4, MT-4 cells; comparison compound; read-out: IC50 in the MT-4 cell based assay.
In general, IC50 refers to the concentration at which inhibition is half-maximal. For `CC(C)CN(CC(O)C(Cc1ccccc1)NC(=O)OC1CCOC1)S(=O)(=O)c1ccc(N)cc1` [Compound A, 4-amino-N-((2 syn, 3S)-2-hydroxy-4-phenyl-3-((S)-tetrahydrofuran-3-yloxycarbonylamino)-butyl)-N-isobutyl-benzenesulfonamide, reference compound], the concentration for half-maximal inhibition (IC50) stood at 0.08 µM.

Still in this test, the particulars now being: Human immunodeficiency virus 1, IIIB, MT4, Table 12; anti-viral potency in MT-4 cells; read-out: IC50.
On to `COc1ccc(S(=O)(=O)N(CC(O)C(Cc2ccccc2)NC(=O)OC2COC3OCCC23)CC(C)(C)CCNS(C)(=O)=O)cc1` [Compound 220, (3R,3aS,6aR)hexahydrofuro[2,3-b]furan-3-yl N-((1S,2R)-1-benzyl-3-2,2-dimethyl-4-[(methylsulfonyl)amino]butyl[(4-methoxyphenyl)sulfonyl]amino-2-hydroxypropyl)carbamate and (3S,3aR,6aS)hexahydrofuro[2,3-b]furan-3-yl N-((1S,2R)-1-benzyl-3-2,2-dimethyl-4-[(methylsulfonyl)amino]butyl[(4-methoxyphenyl)sulfonyl]amino-2-hydroxypropyl)carbamate], for which the IC50 was at most 0.1 µM.

For `CC(C)(CCCC#N)CN(CC(O)C(Cc1ccccc1)NC(=O)OC1COC2OCCC12)S(=O)(=O)c1ccc2c(c1)OCCO2` (stereo not shown) [Compound 40], the concentration for half-maximal inhibition (IC50) was at most 0.1 µM.

In the case of `CC(C)(CCC#N)CN(C[C@@H](O)[C@H](Cc1ccccc1)NC(=O)OC1COCOC1)S(=O)(=O)c1ccc(OCc2ccccc2)cc1` [Compound 33, {(1S,2R)-1-Benzyl-3-[(4-cyano-2,2-dimethyl-butyl)-(4-benzyloxybenzenesulfonyl)-amino]-2-hydroxy-propyl}-carbamic acid[1,3]dioxan-5-yl ester], the IC50 was 0.5 to 1 µM.

Still in this test, the particulars now being: Human immunodeficiency virus 1, IIIB, MT4, Table 13; MT-4 cell based assay; class symbol; read-out: IC50.
As to `CC(C)(CCNC(=O)C(C)(C)C)CN(C[C@@H](O)[C@H](Cc1ccccc1)NC(=O)O[C@H]1CO[C@H]2OCC[C@H]21)S(=O)(=O)c1ccc2c(c1)OCO2` [Compound 374], the IC50 was in the range of 0.001 to 0.01 µM. In the case of `CC(C)(CCNC(=O)c1ccccc1)CN(C[C@@H](O)[C@H](Cc1ccccc1)NC(=O)O[C@H]1CO[C@H]2OCC[C@H]21)S(=O)(=O)c1ccc2c(c1)OCO2` [Compound 377], the IC50 lay within 0.001 to 0.01 µM. Consider `CC(C)(CCNC(=O)c1ccco1)CN(C[C@@H](O)[C@H](Cc1ccccc1)NC(=O)O[C@H]1CO[C@H]2OCC[C@H]21)S(=O)(=O)c1ccc2c(c1)OCO2` [Compound 378], for which the IC50 was in the range of 0.001 to 0.01 µM. Take `CC(C)CC(=O)NCCC(C)(C)CN(C[C@@H](O)[C@H](Cc1ccccc1)NC(=O)O[C@H]1CO[C@H]2OCC[C@H]21)S(=O)(=O)c1ccc2c(c1)OCO2` [Compound 376]: the IC50 lay within 0.001 to 0.01 µM. As for `CC(C)(CCNC(=O)c1cccs1)CN(C[C@@H](O)[C@H](Cc1ccccc1)NC(=O)O[C@H]1CO[C@H]2OCC[C@H]21)S(=O)(=O)c1ccc2c(c1)OCO2` [Compound 379], the concentration for half-maximal inhibition (IC50) lay within 0.001 to 0.01 µM. Regarding `CC(C)(CCNC(=O)C1CCC1)CN(C[C@@H](O)[C@H](Cc1ccccc1)NC(=O)O[C@H]1CO[C@H]2OCC[C@H]21)S(=O)(=O)c1ccc2c(c1)OCO2` [Compound 375], the IC50 was 0.001 to 0.01 µM.

Still in this test, the particulars now being: Human immunodeficiency virus 1, IIIB, MT4, Table 13; MT-4 cell based assay; numeric value, comparison compound; read-out: IC50.
In the case of `CC(C)CN(CC(O)C(Cc1ccccc1)NC(=O)OC1CCOC1)S(=O)(=O)c1ccc(N)cc1` [Compound A, 4-amino-N-((2 syn, 3S)-2-hydroxy-4-phenyl-3-((S)-tetrahydrofuran-3-yloxycarbonylamino)-butyl)-N-isobutyl-benzenesulfonamide, reference compound], the IC50 is 0.08 µM.

The test is the same for the next values; noted with them: Human immunodeficiency virus 1, IIIB, MT4, antiviral assay, MT4 cells infected with HIV-1 (strain IIIB); class symbol; read-out: IC50 (activity range).
With `CC(C)(CCCCNC(=O)CNS(C)(=O)=O)CN(CC(O)C(Cc1ccccc1)NC(=O)OC1COC2OCCC12)S(=O)(=O)c1ccc2c(c1)OCO2` (stereo not shown) [Compound 542], the IC50 was in the range of 0.1 to 0.5 µM. Same read-out and setting: with `CC(C)(CCCCN)CN(C[C@@H](O)[C@H](Cc1ccccc1)NC(=O)O[C@H]1CCOC1)S(=O)(=O)c1ccc2c(c1)OCO2` [Compound 295, (3S)-tetrahydro-3-furanyl N-(1S,2R)-3-[(1,3-benzodioxol-5-ylsulfonyl)(6-amino-2,2-dimethylhexyl)amino]-1-benzyl-2-hydroxypropylcarbamate] the figure was 0.1 to 0.5 µM. Take `CC(C)(CCNC(=O)CN)CN(CC(O)C(Cc1ccccc1)NC(=O)OC1COC2OCCC12)S(=O)(=O)c1ccc2c(c1)OCO2` [Compound 520, (3R,3aS,6aR)hexahydrofuro[2,3-b]furan-3-yl N-(1S,2R)-3-[(4-[(amino)acetylamino]-2,2-dimethylbutyl)(1,3-benzodioxol-5-ylsulfonyl)amino]-1-benzyl-2-hydroxypropylcarbamate]: the half-inhibitory concentration (IC50) is 0.1 to 0.5 µM. For the compound `CC(C)(CCNC(=O)CCC1CCCC1)CN(C[C@@H](O)[C@H](Cc1ccccc1)NC(=O)O[C@H]1CO[C@H]2OCC[C@H]21)S(=O)(=O)c1ccc2c(c1)OCO2` [Compound 402], the IC50 lay in the range of 0.1 to 0.5 µM. For `COCC(=O)NCC(=O)NCCC(C)(C)CN(CC(O)C(Cc1ccccc1)NC(=O)OC1COC2OCCC12)S(=O)(=O)c1ccc2c(c1)OCO2` (stereo not shown) [Compound 527], the half-maximal inhibitory concentration (IC50) lay in the range of 0.1 to 0.5 µM.

Consider `CC(C)(CCCCN)CN(CC(O)[C@H](Cc1ccccc1)NC(=O)OC1COCOC1)S(=O)(=O)c1ccc2c(c1)OCO2` (stereo partly drawn) [Compound 297, [1,3]-dioxan-5-yl N-(1S,2R)-3-[(1,3-benzodioxol-5-ylsulfonyl)(6-amino-2,2-dimethylhexyl)amino]-1-benzyl-2-hydroxypropylcarbamate], for which the IC50 lay within 0.1 to 0.5 µM. For `CC(C)(CCOC(=O)NO)CN(CC(O)C(Cc1ccccc1)NC(=O)OC1COC2OCCC12)S(=O)(=O)c1ccc2c(c1)OCO2` (stereo not shown) [Compound 605], the IC50 was in the range of 0.1 to 0.5 µM. As for `CC(=O)NCC(=O)NCCC(C)(C)CN(CC(O)C(Cc1ccccc1)NC(=O)OC1COC2OCCC12)S(=O)(=O)c1ccc2c(c1)OCO2` (stereo not shown) [Compound 523], the IC50 lay within 0.1 to 0.5 µM. For `CN(C)C(=O)NCC(=O)NCCC(C)(C)CN(CC(O)C(Cc1ccccc1)NC(=O)OC1COC2OCCC12)S(=O)(=O)c1ccc2c(c1)OCO2` (stereo not shown) [Compound 526], the IC50 lay in the range of 0.1 to 0.5 µM. `CN(C)C(=O)NCC(=O)NCCCCC(C)(C)CN(CC(O)C(Cc1ccccc1)NC(=O)OC1COC2OCCC12)S(=O)(=O)c1ccc2c(c1)OCO2` (stereo not shown) [Compound 540]: the IC50 was in the range of 0.1 to 0.5 µM. Regarding `CC(C)(CCNC(=O)CNS(C)(=O)=O)CN(CC(O)C(Cc1ccccc1)NC(=O)OC1COC2OCCC12)S(=O)(=O)c1ccc2c(c1)OCO2` (stereo not shown) [Compound 528], the IC50 was in the range of 0.1 to 0.5 µM. Same read-out and setting: with `CN(C)C(=NC#N)NCCC(C)(C)CN(CC(O)C(Cc1ccccc1)NC(=O)OC1COC2OCCC12)S(=O)(=O)c1ccc2c(c1)OCO2` (stereo not shown) [Compound 563] the figure was 0.1 to 0.5 µM; with `CC(C)(CCCCN)CN(CC(O)[C@H](Cc1ccccc1)NC(=O)OC1CCOC1)S(=O)(=O)c1ccc(N)cc1` (stereo partly drawn) [Compound 296, (3S)-tetrahydro-3-furanyl N-(1S,2R)-3-[(4-aminophenylsulfonyl)(6-amino-2,2-dimethylhexyl)amino]-1-benzyl-2-hydroxypropylcarbamate], 0.1 to 0.5 µM.

The test is the same for the next values; noted with them: Table 12; anti-viral potency in MT-4 cells; read-out: IC50.
As to `CC(C)(CCC#N)CN(CC(O)[C@H](Cc1ccccc1)NC(=O)OC1COC2OCCC12)S(=O)(=O)c1cccc(N)c1` (stereo partly drawn) [Compound 16, (3R,3aS,6aR)-Hexahydrofuro[2,3-b]furan-3-yl N-((1S,2R)-3-[(3-aminophenyl)sulfonyl](4-cyano-2,2-dimethylbutyl)amino-1-benzyl-2-hydroxypropyl)carbamate], the IC50 was at most 0.1 µM.
